Reference: PMC6941172 (Journal of medicinal chemistry, 2018)

Columns and labels:
[1] = biological target: GABAAR α6β3γ2 subtype (Rattus norvegicus, UniProt P18508+P30191+P63079); conditions: at 10 μM; cited from earlier work
[2] = Solubility assay; assay type: physicochemical; conditions: vs parent ligand 8a
[3] = Microsomal stability assay, mouse liver microsomes; assay type: in vitro ADME; conditions: vs respective parent (8a, 8i, 8n or 8k)
[4] = biological target: T1, Muscarinic M4 (Homo sapiens, UniProt P08173); assay type: binding
T1 sequence (P08173 1-479): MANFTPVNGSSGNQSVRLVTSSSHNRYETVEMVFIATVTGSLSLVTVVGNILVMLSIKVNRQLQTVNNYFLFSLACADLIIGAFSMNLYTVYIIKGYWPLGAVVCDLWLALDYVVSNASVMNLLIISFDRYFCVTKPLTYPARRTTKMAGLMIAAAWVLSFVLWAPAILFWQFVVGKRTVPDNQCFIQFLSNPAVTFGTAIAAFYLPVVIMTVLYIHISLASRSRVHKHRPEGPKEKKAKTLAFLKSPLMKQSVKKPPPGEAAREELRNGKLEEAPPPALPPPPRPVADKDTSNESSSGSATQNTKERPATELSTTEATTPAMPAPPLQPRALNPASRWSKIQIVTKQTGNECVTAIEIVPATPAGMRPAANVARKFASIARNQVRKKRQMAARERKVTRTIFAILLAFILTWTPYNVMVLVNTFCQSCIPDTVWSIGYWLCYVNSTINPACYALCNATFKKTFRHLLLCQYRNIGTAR

Sequence of GABAAR α6β3γ2 subtype (P30191 20-453): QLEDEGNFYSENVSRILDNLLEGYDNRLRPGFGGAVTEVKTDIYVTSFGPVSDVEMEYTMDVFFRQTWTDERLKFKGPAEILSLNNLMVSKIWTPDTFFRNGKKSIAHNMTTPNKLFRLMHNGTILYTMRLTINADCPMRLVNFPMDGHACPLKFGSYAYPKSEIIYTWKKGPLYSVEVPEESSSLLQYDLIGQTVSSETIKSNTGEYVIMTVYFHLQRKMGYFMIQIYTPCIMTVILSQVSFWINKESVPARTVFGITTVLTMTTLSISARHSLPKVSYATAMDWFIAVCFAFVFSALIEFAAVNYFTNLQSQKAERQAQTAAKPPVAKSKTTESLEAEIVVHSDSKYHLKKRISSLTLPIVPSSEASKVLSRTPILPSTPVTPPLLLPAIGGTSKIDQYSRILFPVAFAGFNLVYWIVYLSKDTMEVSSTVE
Sequence of GABAAR α6β3γ2 subtype (P63079 26-473): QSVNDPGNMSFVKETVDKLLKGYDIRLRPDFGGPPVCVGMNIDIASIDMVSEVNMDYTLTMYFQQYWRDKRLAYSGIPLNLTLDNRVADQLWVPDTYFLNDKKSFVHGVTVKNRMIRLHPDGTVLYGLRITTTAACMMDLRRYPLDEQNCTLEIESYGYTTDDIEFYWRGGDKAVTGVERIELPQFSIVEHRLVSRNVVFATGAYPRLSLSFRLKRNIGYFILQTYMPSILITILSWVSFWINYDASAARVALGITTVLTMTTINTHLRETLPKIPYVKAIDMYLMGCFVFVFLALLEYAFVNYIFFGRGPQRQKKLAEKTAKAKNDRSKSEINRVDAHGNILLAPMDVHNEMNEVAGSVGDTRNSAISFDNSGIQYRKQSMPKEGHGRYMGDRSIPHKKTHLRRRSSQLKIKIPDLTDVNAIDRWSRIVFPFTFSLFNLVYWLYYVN
Sequence of GABAAR α6β3γ2 subtype (P18508 39-466): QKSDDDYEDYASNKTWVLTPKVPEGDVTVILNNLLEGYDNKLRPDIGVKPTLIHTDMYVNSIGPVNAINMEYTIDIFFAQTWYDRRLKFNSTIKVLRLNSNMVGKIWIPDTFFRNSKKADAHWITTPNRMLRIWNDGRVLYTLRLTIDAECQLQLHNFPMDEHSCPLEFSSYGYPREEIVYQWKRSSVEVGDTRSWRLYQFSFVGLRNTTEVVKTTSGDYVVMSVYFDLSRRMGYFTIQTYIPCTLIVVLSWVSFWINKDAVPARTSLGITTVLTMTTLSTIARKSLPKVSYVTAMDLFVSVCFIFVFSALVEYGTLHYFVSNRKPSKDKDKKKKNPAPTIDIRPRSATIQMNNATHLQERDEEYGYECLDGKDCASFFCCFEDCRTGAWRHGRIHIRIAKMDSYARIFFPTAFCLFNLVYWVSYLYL

Compound | α6β3γ2 efficacy relative to 8a and 8n [1] | Increase in water solubility [2] | Increase in half-life (MLM) relative to parent ligand [3] | Activity at Muscarinic M4 [4]
COc1ccc(-n2nc3c4cc(Cl)ccc4[nH]cc-3c2=O)cc1 [Compound 8k, 8-Chloro-2-(4-methoxyphenyl)-2,5-dihydro-3H-pyrazolo[4,3-c]quinolin-3-one] | three times higher |  |  | 
COc1ccc2c3nn(-c4ccc(OC)nc4)c(=O)c-3c[nH]c2c1 [Compound 13a, 7-Methoxy-2-(6-methoxypyridin-3-yl)-2,5-dihydro-3H-pyrazolo[4,3-c]quinolin-3-one] |  | about 3 fold | slightly decreased half-life | showed activity
